These results are taken from patent publication US20180251765A1, “HIGH-THROUGHPUT SPLIT APTAMER SCREENING ASSAY” (BELLBROOK LABS, priority 2015, published 2018).

Read-outs that look alike come from different tables or passages of the source.

For data set [1], the target named is histone H4 acetylated at lysine 16 (H4K16Ac) (Homo sapiens, UniProt P62805). The note with it: cited from earlier work.
The target in data set [2] is PRMT1 (Homo sapiens, UniProt Q99873). The note with it: read-out: Km (SAM); plot of velocity vs. SAM, FIG. 5F.
Sequence of PRMT1 (Q99873 whole entry, species assumed): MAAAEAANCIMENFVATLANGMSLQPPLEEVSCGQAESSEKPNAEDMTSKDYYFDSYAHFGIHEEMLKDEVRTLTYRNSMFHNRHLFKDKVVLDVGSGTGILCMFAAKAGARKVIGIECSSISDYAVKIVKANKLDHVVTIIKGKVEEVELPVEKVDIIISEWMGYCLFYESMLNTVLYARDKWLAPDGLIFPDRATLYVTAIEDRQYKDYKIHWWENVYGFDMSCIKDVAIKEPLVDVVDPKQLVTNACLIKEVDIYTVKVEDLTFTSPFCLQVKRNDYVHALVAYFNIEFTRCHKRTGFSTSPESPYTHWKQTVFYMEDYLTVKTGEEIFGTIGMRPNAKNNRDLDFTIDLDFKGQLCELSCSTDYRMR
Data set [3] relates to SAH riboswitch from D. aromatica. The note with it: cited from earlier work.
In data set [4] the target is dimethyl Arg in Histone H3 (H3R8Me2) (Homo sapiens, UniProt P68431). The note with it: cited from earlier work.
In data set [5] the test system is Ref-1 riboswitch. Kind of data set: SAH dependent switch with FP readout, intact riboswitch with fluor-labeled oligo. In kind it is binding, R. ferrireducens. The note with it: intact Ref-1. An excerpt: (§1) The native riboswitch signaling mechanism was first leveraged by transducing the conformational switch that occurs upon SAH binding into a fluorescent signal. The goal was to identify an oligonucleotide that would bind to the riboswitch specifically when SAH was present due to the localized conformational disruption it causes (FIG. 3A). Using two well characterized riboswitches, Ref-1 (SEQ ID NO:1) and Dar-1 (SEQ ID NO:4) (Wang et al., 2008, Mol. Cell. 29(6):691-702), an unbiased, empirical approach was taken by testing a panel of 8-10 bp oligos that covered the entire sequence of each riboswitch. The oligos were labeled with fluors at the 5′ end so that binding could be detected by the increase in fluorescence polarization.
A robust, dose dependent FP shift under optimized conditions was observed, which was quite reproducible. However, the affinity of the riboswitch for SAH was much lower than the low nanomolar level expected, and it decreased further over time (see FIG. 3B and inset table for representative data with Dar-1). […] Moreover, the selectivity for SAH vs. SAM was much poorer than expected, less than 50-fold for both Dar-1 and Ref-1 rather than the 1000-fold-plus selectivity reported for the native riboswitch (Wang et al., 2008, Mol. Cell. 29(6):691-702). […]

Data set [6] relates to split Dar-1 riboswitch (P152/P218). Kind of data set: split aptamer SAH FP assay. In kind it is binding, D. aromatica. How it is done: Based on the predicted folding of the Dar-1 sequence and imputed SAH binding interactions (Wang et al., 2008, Mol Cell. 29(6):691-702), two versions of a split Dar-1 riboswitch were tested, comprised of either a 59 or 52 base 5′ element (P159 of SEQ ID NO:6 or P152 of SEQ ID NO:7) and the remaining 18 base 3′ element (P218 of SEQ ID NO:8). […] For simplicity, EC50 values were used as an approximation of ligand dissociation constants, or Kd. […] This is the first example of a split aptamer sensor with FP readout.
Selectivity vs. SAM is a critical parameter, as measurement of HMT enzyme activity requires detection of SAH in an excess of SAM. […] Thus, the selectivity for SAH is at least 200-fold and likely higher; however, measurements are limited by contamination of SAM with SAH. The combination of sensitivity and selectivity is reflected in a standard curve mimicking an HMT enzyme reaction, in which 200 nM SAM was decreased as SAH was added proportionately (FIG. 4D). To quantitatively assess the robustness of the split aptamer FP assay, the standard curve was done with sixteen replicates to allow determination of Z′ values, a commonly used HTS assay statistic that measures that incorporates both dynamic range and data variability (Zhang et al., 1999, J Biomol. Screen. 4(2):67-73). […] The Z′ measured in this Example was 0.56, indicative of a high quality assay.

Data set [7] has as its system split SAH aptamer P152/P218, Eu construct. Kind of data set: split aptamer SAH TR-FRET assay, Eu construct. In kind it is binding, D. aromatica. A general note: In TR-FRET formats the signal depends on donor and acceptor labels being close together.
Data set [8] has as its system Dar-1 riboswitch. Kind of data set: SAH dependent switch with FP readout, intact riboswitch with fluor-labeled oligo. The format is binding, D. aromatica. The note with it: for EC50: FP dose response.
From the text: as §1
A robust, dose dependent FP shift under optimized conditions was observed, which was quite reproducible. However, the affinity of the riboswitch for SAH was much lower than the low nanomolar level expected, and it decreased further over time (see FIG. 3B and inset table for representative data with Dar-1). […] Moreover, the selectivity for SAH vs. SAM was much poorer than expected, less than 50-fold for both Dar-1 and Ref-1 rather than the 1000-fold-plus selectivity reported for the native riboswitch (Wang et al., 2008, Mol. Cell. 29(6):691-702). Despite significant effort to understand and eliminate the unstable nature of the SAH-riboswitch interaction, including confirming that both the riboswitch and the SAH were not degrading over time, a stable, high affinity SAH dependent signal was unable to be obtained. Thus, a split aptamer approach was next explored.

In data set [9] the target is SAH riboswitch from R. soanacearum. The note with it: isothermal titration calorimetry; cited from earlier work. Background: Isothermal titration calorimetry measures the heat released or taken up as one component is titrated into another.
Data set [10] deals with split SAH aptamer P152/P218, Tb construct. Kind of data set: split aptamer SAH TR-FRET assay, Tb construct. The format is binding, D. aromatica. As for the experimental part: The split aptamer SAH detection assay was next formatted for TR-FRET readout. Luminescent lanthanides were attached to P152 of the SAH aptamer via streptavidin-biotin, and organic acceptor fluors were attached to P218 during synthesis. Both Tb and Eu lanthanide chelates (Life Technologies) were tested, as were four different organic fluors with excitation spectra overlapping the lanthanide emission (Alexa 633, Alexa 647, Cy5, and Dylight 650.)
Importantly, the signal was stable for at least 15 h.

Data set [11] relates to RNA aptamer for theophylline. The note with it: on the basis of a single methyl group; cited from earlier work.

Take “H4K16Ac aptamer: 48 base DNA aptamer for histone H4 acetylated at lysine 16 (AGACGTAAGTTAATTGGACTTGGTCGTGTGCGGCACAGCGATTGAAAT; DNA, backbone and methylation of C not given here)”: the “selectivity versus Histone H4 acetylation at K8 or unmodified Histone H4 sequence” value in data set [1] is “more than 2,000 fold”. The Kd in data set [1] (read-out: Kd for target PTM) was 21 nM.

Broadly, the Km is the substrate concentration at which the rate is half of its maximum. With `C[S+](CC[C@H](N)C(=O)[O-])C[C@H]1O[C@@H](n2cnc3c(N)ncnc32)[C@H](O)[C@@H]1O` (stereo partly drawn) [SAM, S-adenosylmethionine], the Km in data set [2] was 0.014 µM. Besides, the “selectivity for SAH versus SAM (affinity for SAM fold lower)” value in data set [3] (native riboswitch) is “at least 1000 fold”.

In the case of “H3R8Me2 aptamer: 50 base RNA aptamer developed for dimethyl Arg in Histone H3 (GAUGGGUCAGCAUGUAGCCAGGCAGGGCCGUGUGAGCUUGUGCUGAUGUG; RNA, backbone and methylation of C not given here)”, the Kd in data set [4] (read-out: affinity for the target modified peptide) was 12 nM. Further, in data set [4] (vs H3K9Me2), the “selectivity for a similar histone PTM (H3K9Me2)” value is recorded as 8.1 fold. In data set [4] (vs unmodified peptide), the “selectivity for the unmodified peptide” value is 3.5 fold.

The EC50 is the concentration that produces a half-maximal response. In the case of `Nc1ncnc2c1ncn2[C@@H]1O[C@H](CSCC[C@H](N)C(=O)O)[C@@H](O)[C@H]1O` [SAH, S-adenosylhomocysteine], the figures for the “selectivity for SAH vs. SAM” value in data set [5], in [6] (limited by contamination of SAM with SAH) and in [8] (intact Dar-1) were “less than 50 fold”, “at least 200 fold” and “less than 50 fold”, respectively. For the same compound, the EC50 was 20 to 25 nM in [6] (from FP dose response curves FIG. 4B, used as approximation of Kd); 16 nM in data set [7]; 1900 nM in [8] (after 3 h, read-out: EC50 for SAH after 3 h); 472 nM in data set [8] (initial reading, read-out: initial EC50 for SAH); 23 nM in [10]. The results for the Kd in data set [9] and in data set [3] (equilibrium binding analysis) were 30 nM and 20 nM, respectively.

Consider `Cn1c(=O)c2[nH]cnc2n(C)c1=O` [theophylline], for which the selectivity against caffeine result in data set [11] was “more than 10^4 fold”.
